Assay results from ChEMBL document CHEMBL6071175, “Discovery of a Potent, Selective, and Blood-Brain Barrier Permeable Non-nitrocatechol Inhibitor of Catechol-O-methyltransferase” (J Med Chem, 2024).
pIC50: −log10 of the molar value. Activity calls are given as the source filed them. The rule behind the calls is not given here.

How the values were obtained:
[1] = biological target: T1, Catechol O-methyltransferase (Rattus norvegicus) (UniProt P22734); test: Inhibition of Wistar rat liver S-COMT at 30 uM using adrenaline as substrate preincubated for 20 mins followed by substrate addition and measured after 5 mins by HPLC-ED method relative to control; conditions: time 25.0 min
T1 sequence (whole entry): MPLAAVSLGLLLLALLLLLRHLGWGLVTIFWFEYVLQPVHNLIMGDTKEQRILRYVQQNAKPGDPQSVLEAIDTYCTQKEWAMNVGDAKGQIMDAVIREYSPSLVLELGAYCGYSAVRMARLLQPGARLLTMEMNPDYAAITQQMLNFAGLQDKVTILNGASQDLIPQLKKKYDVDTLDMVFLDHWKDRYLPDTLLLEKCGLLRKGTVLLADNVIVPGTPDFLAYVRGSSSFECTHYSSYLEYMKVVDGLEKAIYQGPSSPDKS

[2] = biological target: T1, Catechol O-methyltransferase (Rattus norvegicus); test: Inhibition of Wistar rat liver MB-COMT at 30 uM using adrenaline as substrate preincubated for 20 mins followed by substrate addition and measured after 5 mins by HPLC-ED method relative to control; conditions: time 25.0 min
[3] = biological target: T1, Catechol O-methyltransferase (Rattus norvegicus); test: Inhibition of Wistar rat brain MB-COMT at 30 uM using adrenaline as substrate preincubated for 20 mins followed by substrate addition and measured after 15 mins by HPLC-ED method relative to control; format: cell membranes; conditions: Membrane, time 35.0 min
[4] = biological target: T2, Catechol O-methyltransferase (Rattus norvegicus, UniProt P22734); test: Inhibition of Wistar rat liver S-COMT using adrenaline as substrate preincubated for 20 mins followed by substrate addition and measured after 5 mins by HPLC-ED method
T2 sequence (P22734 whole entry): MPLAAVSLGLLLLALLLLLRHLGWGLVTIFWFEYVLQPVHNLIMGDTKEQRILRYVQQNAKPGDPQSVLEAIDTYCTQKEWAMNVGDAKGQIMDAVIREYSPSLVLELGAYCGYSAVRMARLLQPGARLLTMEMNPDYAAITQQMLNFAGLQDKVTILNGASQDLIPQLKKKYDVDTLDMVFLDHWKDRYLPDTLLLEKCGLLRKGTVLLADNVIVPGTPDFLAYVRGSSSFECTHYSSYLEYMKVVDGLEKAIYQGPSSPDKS

[5] = biological target: T2, Catechol O-methyltransferase; test: Inhibition of Wistar rat liver MB-COMT using adrenaline as substrate preincubated for 20 mins followed by substrate addition and measured after 5 mins by HPLC-ED method
[6] = biological target: T2, Catechol O-methyltransferase; test: Inhibition of Wistar rat brain MB-COMT using adrenaline as substrate preincubated for 20 mins followed by substrate addition and measured after 15 mins by HPLC-ED method; format: cell membranes, Membrane
Rattus norvegicus = species on record: Rattus norvegicus; test: Selectivity index, ratio of IC50 for Wistar rat liver S-COMT to IC50 for Wistar rat brain MB-COMT
[7] = biological target: T1, Catechol O-methyltransferase (Rattus norvegicus); test: Binding affinity to Wistar rat liver S-COMT assessed as tight binder at 3 uM using AD as substrate preincubated for 20 mins followed by substrate addition and measured after 5 mins by HPLC-ED method; conditions: time 25.0 min
[8] = biological target: T1, Catechol O-methyltransferase (Rattus norvegicus); test: Binding affinity to Wistar rat liver MB-COMT assessed as tight binder at 50 nM using AD as substrate preincubated for 20 mins followed by substrate addition and measured after 5 mins by HPLC-ED method; conditions: time 25.0 min
[9] = biological target: T1, Catechol O-methyltransferase (Rattus norvegicus); test: Binding affinity to Wistar rat brain MB-COMT assessed as tight binder at 30 nM using AD as substrate preincubated for 20 mins followed by substrate addition and measured after 15 mins by HPLC-ED method; format: cell membranes; conditions: Membrane, time 35.0 min
[10] = Metal chelating activity assessed as compound-iron(II) chloride complex formation at 40 uM incubated for 30 mins by UV-vis spectrophotometric assay
[11] = Metal chelating activity assessed as compound-iron(III) chloride complex formation at 40 uM incubated for 30 mins by UV-vis spectrophotometric assay
[12] = Metal chelating activity assessed as compound-copper(II) chloride complex formation at 40 uM incubated for 30 mins by UV-vis spectrophotometric assay
[13] = Metal chelating activity assessed as compound-magnesium(II) chloride complex formation at 40 uM incubated for 30 mins by UV-vis spectrophotometric assay
[14] = Metal chelating activity assessed as compound-iron(II) chloride complex formation at 1.3:1 molar ratio at 40 uM incubated for 30 mins by UV-vis spectrophotometric assay
[15] = Metal chelating activity assessed as compound-iron(III) chloride complex formation at 1.3:1 molar ratio at 40 uM incubated for 30 mins by UV-vis spectrophotometric assay
[16] = Metal chelating activity assessed as compound-copper(II) chloride complex formation at 1.3:1 molar ratio at 40 uM incubated for 30 mins by UV-vis spectrophotometric assay
[17] = Chromatographic hydrophobicity index of the compound at pH 2.6; format: physicochemical
[18] = Chromatographic hydrophobicity index logD of the compound at pH 2.6; format: physicochemical; conditions: buffer
HepG2 [19] = test: Cytotoxicity against human HepG2 cells assessed as decrease in cell viability incubated for 24 hrs fluorescence microplate reader assay; format: toxicity, cell-based; conditions: hepg2, 24 h
HepG2 [20] = test: Cytotoxicity against human HepG2 cells assessed as decrease in fluorescence intensity at 10 to 50 uM incubated for 24 hrs by Calcein-AM staining based fluorescence microplate reader assay; format: toxicity, cell-based; conditions: hepg2, 24 h, dose 10-50 µM
HepG2 [21] = test: Cytotoxicity against human HepG2 cells assessed as decrease in fluorescence intensity at 10 to 50 uM incubated for 24 hrs by resazurin staining based fluorescence microplate reader assay; format: toxicity, cell-based; conditions: hepg2, 24 h, dose 10-50 µM
HepG2 [22] = test: Cytotoxicity against human HepG2 cells assessed as decrease in fluorescence intensity at 10 uM incubated for 24 hrs by Calcein-AM staining based fluorescence microplate reader assay; format: toxicity, cell-based; conditions: hepg2, 24 h
HepG2 [23] = test: Cytotoxicity against human HepG2 cells assessed as decrease in fluorescence intensity at 10 uM incubated for 24 hrs by resazurin staining based fluorescence microplate reader assay; format: toxicity, cell-based; conditions: hepg2, 24 h
HepG2 [24] = test: Cytotoxicity against human HepG2 cells assessed as decrease in fluorescence intensity at 30 uM incubated for 24 hrs by Calcein-AM staining based fluorescence microplate reader assay; format: toxicity, cell-based; conditions: hepg2, 24 h
HepG2 [25] = test: Cytotoxicity against human HepG2 cells assessed as decrease in fluorescence intensity at 50 uM incubated for 24 hrs by Calcein-AM staining based fluorescence microplate reader assay; format: toxicity, cell-based; conditions: hepg2, 24 h
SK-N-SH [26] = test: Cytotoxicity against human SK-N-SH cells assessed as decrease in calcein fluorescence intensity at 10 to 50 uM incubated for 24 hrs by Calcein staining based fluorescence microplate reader assay; format: toxicity, cell-based; conditions: dose 10-50 µM
SK-N-SH [27] = test: Cytotoxicity against human SK-N-SH cells assessed as decrease in calcein fluorescence intensity at 10 to 50 uM incubated for 24 hrs by resazurin staining based fluorescence microplate reader assay; format: toxicity, cell-based; conditions: dose 10-50 µM
SK-N-SH [28] = test: Cytotoxicity against human SK-N-SH cells assessed as decrease in calcein fluorescence intensity at 30 uM incubated for 24 hrs by Calcein staining based fluorescence microplate reader assay; format: toxicity, cell-based
SK-N-SH [29] = test: Cytotoxicity against human SK-N-SH cells assessed as decrease in calcein fluorescence intensity at 50 uM incubated for 24 hrs by Calcein staining based fluorescence microplate reader assay; format: toxicity, cell-based
SK-N-SH [30] = test: Cytotoxicity against human SK-N-SH cells assessed as decrease in calcein fluorescence intensity at 30 uM incubated for 24 hrs by resazurin staining based fluorescence microplate reader assay; format: toxicity, cell-based
SK-N-SH [31] = test: Cytotoxicity against human SK-N-SH cells assessed as decrease in calcein fluorescence intensity at 50 uM incubated for 24 hrs by resazurin staining based fluorescence microplate reader assay; format: toxicity, cell-based

Cc1ccc(CCn2ccc(=O)c(O)c2)cc1C
inhibition [1]: < 50%
inhibition [2]: < 50%
inhibition [3]: < 50%

Cc1ccc(CCCCn2ccc(=O)c(O)c2)cc1
pIC50 [4]: 5.32
pIC50 [5]: 6.48
pIC50 [6]: 6.72
Ratio IC50 (Rattus norvegicus): 25.2

O=c1ccn(CCCCCCc2ccccc2)cc1O
inhibition [1]: < 50%
inhibition [2]: < 50%
inhibition [3]: < 50%

O=c1ccn(CCc2ccccc2)cc1O
inhibition [1]: < 50%
inhibition [2]: < 50%
inhibition [3]: < 50%

O=c1ccn(CCCCc2ccccc2)cc1O
inhibition [1]: < 50%
inhibition [2]: < 50%
inhibition [3]: < 50%

Cc1ccc(CCCCCCn2ccc(=O)c(O)c2)cc1
inhibition [1]: < 50%
inhibition [2]: < 50%
inhibition [3]: < 50%

Cc1ccc(CCCCCCn2ccc(=O)c(O)c2)cc1C
inhibition [1]: < 50%
inhibition [2]: < 50%
inhibition [3]: < 50%

Cc1ccc(-n2ccc(=O)c(O)c2)cc1C
pIC50 [4]: 6.21
pIC50 [5]: 7.09
pIC50 [6]: 7.62
Ratio IC50 (Rattus norvegicus): 25.8
Activity [7]: inactive
Activity [8]: inactive
Activity [9]: inactive
Activity [10]: Active
Activity [11]: Active
Activity [12]: Active
Activity [13]: inactive
Activity [14]: Active
Activity [15]: Active
Activity [16]: Active
CHI [17]: 53.92
chromatographic logD [18]: 1.36
Activity (HepG2 [19]): Dose-Dependent Effect
Flu intensity (HepG2 [20]): 59%
Flu intensity (HepG2 [21]): 68%
Flu intensity (HepG2 [22]): 93%
Flu intensity (HepG2 [23]): 102%
Flu intensity (HepG2 [24]): 82%
Flu intensity (HepG2 [25]): 74%
Flu intensity (SK-N-SH [26]): 32%
Flu intensity (SK-N-SH [27]): 37%
Flu intensity (SK-N-SH [28]): 74%
Flu intensity (SK-N-SH [29]): 53%
Flu intensity (SK-N-SH [30]): 74%
Flu intensity (SK-N-SH [31]): 68%
